Results taken from ChEMBL document CHEMBL1133531, “Carbonic anhydrase inhibitors: perfluoroalkyl/aryl-substituted derivatives of aromatic/heterocyclic sulfonamides as topical intraocular pressure-lowering agents with prolonged duration of action” (J Med Chem, 2000).

Columns and labels:
Carbonic anhydrase 4 = molecular target: T1, Carbonic anhydrase 4 (Bos taurus, UniProt Q95323)
T1 sequence (Q95323 whole entry): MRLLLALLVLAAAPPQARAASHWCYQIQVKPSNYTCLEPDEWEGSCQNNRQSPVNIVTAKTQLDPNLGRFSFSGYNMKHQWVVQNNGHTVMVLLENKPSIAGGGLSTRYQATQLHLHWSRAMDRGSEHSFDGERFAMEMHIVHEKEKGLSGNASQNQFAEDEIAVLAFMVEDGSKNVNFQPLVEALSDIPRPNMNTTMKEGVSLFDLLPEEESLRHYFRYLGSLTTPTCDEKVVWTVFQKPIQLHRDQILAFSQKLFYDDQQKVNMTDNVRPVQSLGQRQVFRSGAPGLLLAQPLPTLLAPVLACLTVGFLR
Description: Inhibition of bovine carbonic anhydrase IV (CA4) from bovine lung microsomes

Carbonic anhydrase 1 = Carbonic anhydrase 1 (Homo sapiens, UniProt P00915)
Sequence of Carbonic anhydrase 1 (P00915 whole entry): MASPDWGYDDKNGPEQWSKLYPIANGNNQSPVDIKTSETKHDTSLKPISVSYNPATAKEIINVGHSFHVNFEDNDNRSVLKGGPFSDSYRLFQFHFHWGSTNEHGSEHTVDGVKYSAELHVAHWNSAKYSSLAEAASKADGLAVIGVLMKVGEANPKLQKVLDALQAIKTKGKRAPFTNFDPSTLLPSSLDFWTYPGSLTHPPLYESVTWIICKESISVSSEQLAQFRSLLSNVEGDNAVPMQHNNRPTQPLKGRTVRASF
Description: Inhibition of human recombinant carbonic anhydrase I (CA1)

| Structure (SMILES) | Ki (Carbonic anhydrase 4) [nM] | Ki (Carbonic anhydrase 1) [nM] |
| --- | --- | --- |
| NS(=O)(=O)c1ccc(NNC(=O)C(F)(F)C(F)(F)C(F)(F)C(F)(F)C(F)(F)C(F)(F)C(F)(F)C(F)(F)F)cc1 | 840 | 1850 |
| NS(=O)(=O)c1ccc(NS(=O)(=O)C(F)(F)F)c(Br)c1 | 47000 | 200000 |
| NS(=O)(=O)c1ccccc1NC(=O)C(F)(F)C(F)(F)C(F)(F)C(F)(F)C(F)(F)C(F)(F)C(F)(F)C(F)(F)F | 1500 | 1800 |
| NS(=O)(=O)c1nnc(NC(=O)CCNS(=O)(=O)C(F)(F)C(F)(F)C(F)(F)C(F)(F)F)s1 | 11 | 300 |
| Cn1nc(S(N)(=O)=O)s/c1=N/S(=O)(=O)c1ccc(NC(=O)C(F)(F)C(F)(F)C(F)(F)C(F)(F)C(F)(F)C(F)(F)C(F)(F)C(F)(F)F)cc1 | 12 | 900 |
| NS(=O)(=O)c1ccc(CNS(=O)(=O)C(F)(F)F)cc1 | 24500 | 138000 |
| NS(=O)(=O)c1ccc(CCNS(=O)(=O)C(F)(F)F)cc1 | 50000 | 81300 |
| NS(=O)(=O)c1ccc(NC(=O)c2c(F)c(F)c(F)c(F)c2F)c(Br)c1 | 865 | 1870 |
| NS(=O)(=O)c1ccc(Nc2ccnc(NS(=O)(=O)C(F)(F)F)n2)cc1 | 39 | 8000 |
| NS(=O)(=O)c1nnc(NS(=O)(=O)c2ccc(NS(=O)(=O)C(F)(F)F)cc2)s1 | 25 | 1000 |
| NS(=O)(=O)c1ccc(NS(=O)(=O)C(F)(F)C(F)(F)C(F)(F)C(F)(F)C(F)(F)C(F)(F)C(F)(F)C(F)(F)F)c(Cl)c1 | 10300 | 2480 |
| NS(=O)(=O)c1nc2ccc(OCCOC(=O)C(F)(F)C(F)(F)C(F)(F)C(F)(F)C(F)(F)C(F)(F)C(F)(F)C(F)(F)F)cc2s1 | 7 | 24 |
| NS(=O)(=O)c1ccc(NS(=O)(=O)c2ccc(NC(=O)c3c(F)c(F)c(F)c(F)c3F)cc2)cc1 | 39 | 6600 |
| NS(=O)(=O)c1ccc(COC(=O)c2c(F)c(F)c(F)c(F)c2F)cc1 | 410 | 1200 |
| NS(=O)(=O)c1ccc(CNS(=O)(=O)C(F)(F)C(F)(F)C(F)(F)C(F)(F)F)cc1 | 255 | 13000 |
| NS(=O)(=O)c1nnc(NS(=O)(=O)c2ccc(NC(=O)c3c(F)c(F)c(F)c(F)c3F)cc2)s1 | 32 | 1500 |

| Structure (SMILES) | Ki (Carbonic anhydrase 4) [nM] | Ki (Carbonic anhydrase 1) [nM] |
| --- | --- | --- |
| NS(=O)(=O)c1nc2ccc(OCCOS(=O)(=O)C(F)(F)F)cc2s1 | 7 | 50 |
| NS(=O)(=O)c1ccc(NC(=O)C(F)(F)C(F)(F)C(F)(F)C(F)(F)C(F)(F)C(F)(F)C(F)(F)C(F)(F)F)c(F)c1 | 550 | 1400 |
| NS(=O)(=O)c1cccc(NS(=O)(=O)c2ccc(NC(=O)C(F)(F)C(F)(F)C(F)(F)C(F)(F)C(F)(F)C(F)(F)C(F)(F)C(F)(F)F)cc2)c1 | 30 | 3000 |
| NS(=O)(=O)c1ccc(NS(=O)(=O)c2c(F)c(F)c(F)c(F)c2F)c(F)c1 | 140 | 710 |
| NS(=O)(=O)c1nc2ccc(OCCOS(=O)(=O)C(F)(F)C(F)(F)C(F)(F)C(F)(F)F)cc2s1 | 6 | 19 |
| NS(=O)(=O)c1cc(S(N)(=O)=O)c(NC(=O)c2c(F)c(F)c(F)c(F)c2F)c(Cl)c1Cl | 420 | 1900 |
| NS(=O)(=O)c1ccc(CCOS(=O)(=O)c2c(F)c(F)c(F)c(F)c2F)cc1 | 103 | 300 |
| NS(=O)(=O)c1nc2ccc(NS(=O)(=O)C(F)(F)C(F)(F)C(F)(F)C(F)(F)C(F)(F)C(F)(F)C(F)(F)C(F)(F)F)cc2s1 | 7 | 49 |
| NS(=O)(=O)c1ccc(NC(=O)C(F)(F)C(F)(F)C(F)(F)C(F)(F)C(F)(F)C(F)(F)C(F)(F)C(F)(F)F)c(Br)c1 | 620 | 2500 |
| NS(=O)(=O)c1nnc(NS(=O)(=O)C(F)(F)F)s1 | 600 | 59800 |
| NS(=O)(=O)c1ccc(NNS(=O)(=O)C(F)(F)F)cc1 | 60800 | 156000 |
| NS(=O)(=O)c1ccc(NC(=O)C(F)(F)C(F)(F)C(F)(F)C(F)(F)C(F)(F)C(F)(F)C(F)(F)C(F)(F)F)c(Cl)c1 | 600 | 2300 |
| Cn1nc(S(N)(=O)=O)s/c1=N/S(=O)(=O)c1ccc(NC(=O)c2c(F)c(F)c(F)c(F)c2F)cc1 |  | 1600 |
| NS(=O)(=O)c1cc(S(N)(=O)=O)c(NC(=O)c2c(F)c(F)c(F)c(F)c2F)cc1Cl | 54 | 750 |
| NS(=O)(=O)c1ccc(NS(=O)(=O)c2c(F)c(F)c(F)c(F)c2F)c(I)c1 | 675 | 1760 |
